Measured values from PubChem BioAssay (NCI).
“And” between values parts separate entries of the source, which are not always exact repeats. Equal values may be shown once.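 Briefly, cells in 96-well plates were exposed to five compound concentrations for 48 h, and endpoints were estimated by linear interpolation. GI50 marks 50% less growth. TGI is the concentration that stops growth completely.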

Test system: MDA-MB-468 breast
Test: NCI tumour cell line growth inhibition, 48 h

## CC12CCC3C(CCC4Cc5[nH]c6ccccc6c5CC43C)C1CCC2O (stereo not drawn)
  GI50: 2.78 µM
  TGI: > 100 µM

## Nc1cc(-c2c[nH]c3ccc(F)cc23)nc2cc(-c3c[nH]c4ccc(F)cc34)nn12
  GI50: 2.01 µM
  TGI: 3.84 µM

## COC(=O)CCC(=O)C(=O)OC
  GI50: 90800 µM
  TGI: > 100000 µM

## COc1ccc2oc(=O)cc(C(c3ccc[nH]3)c3ccc[nH]3)c2c1
  GI50: 0.344 µM
  TGI: 3.34 µM

## N#Cc1c(-c2ccccc2)nc(SCC2CO2)nc1N1CCOCC1 (stereo not drawn)
  GI50: 4.15 µM
  TGI: > 68.4 µM

## COc1ccc(C2CC(c3cc(OC)c(OC)c(OC)c3)=NO2)cc1OCCCCOc1cc2c(cc1OC)C(=O)N1CCC[C@H]1C=N2 (stereo partly drawn)
  GI50: 1.34 µM
  TGI: 2.97 µM

## COc1cc(NS(C)(=O)=O)ccc1Nc1c2ccc([N+](=O)[O-])cc2nc2c(C)cccc12
  GI50: 0.246 µM
  TGI: 0.873 µM

## C=CC[n+]1c(/C=C/C=C2\N(C)c3ccccc3C2(C)C)sc2ccc(OC)cc21
  GI50: 0.0297 µM
  TGI: 1.05 µM

## F
  GI50: 4500 µM
  TGI: > 6870 µM

## O=C(NNc1nc2cc(F)ccc2n2c(CN3CCCC3)ccc12)c1cnccn1
  GI50: 1.6 µM
  TGI: 6.9 µM

## CC(=O)N[C@@H](Cc1ccc(OP(=O)(O)O)cc1)C(=O)N[C@H]1CCC(=O)N2CCC[C@@H](C(=O)NCc3ccc(Cl)cc3)N2C1=O
  GI50: > 25 µM
  TGI: > 25 µM

## C=C1C(=O)O[C@H]2[C@H]1CC/C(CNC(=O)Cc1c[nH]c3ccccc13)=C\CC[C@@]1(C)O[C@@H]21
  GI50: 0.795 µM
  TGI: 2.73 µM

## FC(F)(F)Oc1cccc(-c2cnc3ccc(-c4ccncc4)nn23)c1
  GI50: 0.59 µM
  TGI: 3.77 µM

## Nc1ccc2c(c1)C(=O)C(=O)c1c-2nc2ccccn12
  GI50: 1.53 µM
  TGI: 3.11 µM

## Cc1cccc(NC(=O)CCc2ccc(N3C(N)=NC(N)=NC3(C)C)cc2)c1
  GI50: 0.692 µM
  TGI: > 51.4 µM

## Cc1ccc2c(c1)C(C)Cc1c(ncnc1-n1cnc3ccccc31)N2C (stereo not drawn)
  GI50: 0.262 µM
  TGI: 23.2 µM

## CN(C)CCOc1ccc(-c2nc(-c3ccc4c(c3)CC/C4=N\O)c(-c3ccncc3)[nH]2)cc1
  GI50: 3.63 µM and 2.74 µM
  TGI: 7.37 µM and 24.4 µM

## N#Cc1cnc2ccc(-c3cnc(N)nc3)cc2c1N1CCc2cc(F)c(Cl)cc21
  GI50: 0.38 µM
  TGI: 2.04 µM

## CC1(C)N=C(N)N=C(N)N1c1cccc(CCCCc2cccc(S(=O)(=O)F)c2)c1
  GI50: 0.748 µM
  TGI: 26.4 µM
